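1) Cells in 96-well plates. 2) Compound, 48 h, 5 concentrations. 3) Linear interpolation between surrounding doses. 4) Unreached endpoint = highest concentration. Here, GI50 denotes the concentration required for 50% inhibition of growth. The concentration for full growth arrest is given as TGI.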

The record followed here is PubChem BioAssay (NCI).

Among the test systems are A549 NSCLC; HOP-92 NSCLC; MCF7 breast; SF-539 CNS; SNB-19 CNS; TK-10 renal; ACHN renal; SF-268 CNS; UO-31 renal; MALME-3M melanoma.
Test in all cases: NCI anticancer screen, dose series, 48 h

Regarding `O=c1ccc2ccc(CBr)cc2o1`, the TGI in the assay with A549 NSCLC came out at 30.1 µM; with HOP-92 NSCLC, 3.13 µM; in the assay with MCF7 breast it was 3.87 µM; in the assay on SF-539 CNS, 13.9 µM; in the assay on SNB-19 CNS, 24.8 µM; with TK-10 renal, 3.37 µM.

`Cc1ccc(Cc2cc(N3CCN(c4cccc(Cl)c4)CC3)nnc2C)cc1`: the TGI in the assay on A549 NSCLC, in the assay with ACHN renal, with MCF7 breast, with SF-268 CNS, in the assay on SF-539 CNS and in the assay on SNB-19 CNS was above 100 µM in each case. In addition, the TGI in the assay on TK-10 renal and in the assay with UO-31 renal was above 100 µM in each case.

With `CC1(C)OC[C@H](C(=N)OCc2ccccc2)O1`, the TGI in the assay with A549 NSCLC, in the assay with ACHN renal, in the assay on HOP-92 NSCLC, with MALME-3M melanoma, with SF-268 CNS and in the assay on SF-539 CNS was above 100 µM in each case. The TGI with SNB-19 CNS, in the assay on TK-10 renal and in the assay with UO-31 renal was above 100 µM each time.

As for `O=c1[nH]c(=O)c2ncn(-c3ccc([N+](=O)[O-])cn3)c2[nH]1`, the TGI in the assay on A549 NSCLC, with ACHN renal, in the assay with HOP-92 NSCLC, in the assay on MCF7 breast, in the assay with SF-268 CNS and in the assay on SF-539 CNS was above 100 µM throughout. For the same compound, the TGI in the assay on SNB-19 CNS, in the assay with TK-10 renal and in the assay on UO-31 renal was above 100 µM in each case.

In the case of `CSc1cc(Cl)c(C)cc1S(=O)(=O)NC(=O)NNc1ccc(F)cc1`, the TGI in the assay on A549 NSCLC, in the assay with ACHN renal, with MALME-3M melanoma, in the assay on MCF7 breast, in the assay on SF-268 CNS and with SF-539 CNS was above 100 µM each time. For the same compound, in the assay on SNB-19 CNS, the TGI is above 100 µM.

`O=C1/C(=C/c2ccc(Cl)cc2)Oc2cc(O)ccc21`: the TGI in the assay with A549 NSCLC was 91.7 µM; in the assay on ACHN renal, 61.2 µM; with MCF7 breast it was above 100 µM; in the assay on SF-268 CNS, above 100 µM; with SF-539 CNS, 61.3 µM; in the assay with SNB-19 CNS, 87.4 µM. Also, the TGI in the assay with TK-10 renal turned out to be 96.8 µM; with UO-31 renal, 47.1 µM.

`CCOC(=O)c1c(NS(=O)(=O)c2ccc(C)cc2)sc2c1CCCC2`: the TGI with A549 NSCLC, in the assay with ACHN renal, in the assay on MCF7 breast, with SF-268 CNS, in the assay with SF-539 CNS and in the assay with SNB-19 CNS was above 100 µM in each case. In addition, the TGI with TK-10 renal is above 100 µM; with UO-31 renal, 72.7 µM.

For `CC1=NN(C(=O)Cc2ccccc2)C(=O)/C1=C\c1ccc([N+](=O)[O-])cc1`, the TGI in the assay with A549 NSCLC was above 100 µM; with ACHN renal, above 100 µM; in the assay on HOP-92 NSCLC, 9.82 µM; in the assay on MALME-3M melanoma, above 100 µM; in the assay on SF-268 CNS it was above 100 µM; in the assay on SF-539 CNS it was above 100 µM. Besides, the TGI in the assay on SNB-19 CNS, with TK-10 renal and in the assay with UO-31 renal was above 100 µM throughout.

As for `CCOC(=O)c1[nH]cc(C)c1-c1cccn1-c1ccc(Cl)cc1[N+](=O)[O-]`, the TGI is 92.9 µM with A549 NSCLC; above 100 µM with ACHN renal; 51.9 µM with HOP-92 NSCLC; above 100 µM in the assay on MCF7 breast; 61.5 µM in the assay on SF-268 CNS; 43.9 µM in the assay on SF-539 CNS. For the same compound, the TGI with TK-10 renal worked out at 41.7 µM; with UO-31 renal, 54.9 µM.

Regarding `CSc1ncc2c(n1)-c1ccccc1OC2N1CCOCC1` (configuration not stated), the TGI in the assay on A549 NSCLC, with ACHN renal, in the assay with HOP-92 NSCLC, with MCF7 breast, in the assay with SF-268 CNS and in the assay with SF-539 CNS was above 100 µM throughout. The TGI in the assay on SNB-19 CNS, in the assay with TK-10 renal and in the assay with UO-31 renal was above 100 µM each time.

`CCC12CCCN(Cc3ccccc3)C1c1c(n(C)c3ccccc13)C(CO)C2` (configuration not stated): the TGI was above 257 µM in the assay with A549 NSCLC; 110 µM in the assay on HOP-92 NSCLC; 84.6 µM in the assay on MALME-3M melanoma; above 257 µM with SF-268 CNS; 73.9 µM in the assay on SF-539 CNS; 186 µM in the assay with SNB-19 CNS. In the assay on TK-10 renal, this compound gave a TGI of 246 µM.

As to `CCC(C)(C)c1cc(O)c(C(C)(C)CC)cc1O`, the GI50 with A549 NSCLC is 3.2 µM; in the assay on ACHN renal, 4.62 µM; in the assay with HOP-92 NSCLC, 1.63 µM; in the assay with MCF7 breast, 2.46 µM; with SF-268 CNS it was 3.92 µM; with SF-539 CNS, 2.7 µM. Also, the GI50 in the assay with SNB-19 CNS was 2.69 µM; with TK-10 renal, 2.46 µM. In addition, the TGI in the assay on A549 NSCLC was found to be 11.9 µM; in the assay on ACHN renal it was 16.1 µM; in the assay with HOP-92 NSCLC it was 5.62 µM; in the assay with MCF7 breast, 11.6 µM; in the assay on SF-268 CNS it was 15.6 µM; in the assay on SF-539 CNS it was 9.23 µM. For the same compound, the results for the TGI in the assay with SNB-19 CNS and in the assay on TK-10 renal were 12.6 µM and 8.19 µM, respectively.

`CCc1cc(C)cc2[n+]1CC=C2`: the TGI with A549 NSCLC was 78.6 µM; in the assay with ACHN renal, 35.4 µM; in the assay with HOP-92 NSCLC it was 45 µM; with MALME-3M melanoma it was 67.5 µM; in the assay on SF-268 CNS, above 100 µM; in the assay on SF-539 CNS it was 95.6 µM. Further, the TGI in the assay on SNB-19 CNS is above 100 µM; in the assay on TK-10 renal, above 100 µM; in the assay on UO-31 renal, 68.9 µM.

Turning to `CC(=O)C1=C(C)O[C@@H]2O[C@H](COCc3ccccc3)[C@@H](OCc3ccccc3)[C@H](O)[C@@H]2S1`, the TGI was above 100 µM in the assay on A549 NSCLC; 52.5 µM in the assay with ACHN renal; 44.2 µM in the assay on HOP-92 NSCLC; 44.5 µM in the assay with MALME-3M melanoma; 32 µM in the assay with SF-268 CNS; 42.2 µM in the assay on SF-539 CNS. The TGI is above 100 µM with SNB-19 CNS, 51.3 µM in the assay with TK-10 renal and 37.7 µM in the assay on UO-31 renal.
